Measurements reported in patent publication US9259491B2, “Class of diazepine derivative chelating agents and complexes with paramagnetic metals thereof as MRI contrast agents” (BRACCO IMAGING S.P.A., priority 2012, dated 2016).

Assays:
[1] = Stability at 37° C. of diazepine complexes determined through r1p measurement in different media; assay type: physicochemical; details: 0.47T, 25° C.
Procedure: (§1) For all the compounds, longitudinal relaxation times (T1) at 20 MHz and at 25° C. on a mq20 Minispec instrument (Bruker Biospin, Germany) were measured in water, human serum albumin at physiological concentration and human plasma. Millimolar relaxivity r1p was thus determined from T1 measurements using the following equation: R^i1obs=1/T^i,J1obs=r^i,j1p·[Gd^3+]+1/T^j1 wherein R^i1obs is the observed relaxation […] of the selected contrast agent, T1obs is the observed longitudinal relaxation time of the solution and the indexes i and j relate to the contrast agent and to the medium respectively.
In its turn, this means that the present amphiphilic complexes can be administered and detected during MRI experiments allowing a clear and exhaustive analysis of the image over a suitable frame of time.

[2] = Millimolar relaxivity r1p from T1 measurements in water, HSA 4% and human plasma (0.47T/20 MHz, 25° C.); assay type: physicochemical
Procedure: as §1

Compound | r1p (stability at 37° C.) ([1]; Water, T0) | r1p ([2]; HSA 4%) | r1p ([2]; Human plasma) | r1p ([2]; Water) | also measured
CCCCCCCCCCCCN(CCCCCCCCCCCC)C(=O)CCCCC1(N(CC(=O)[O-])CC(=O)[O-])CN(CC(=O)[O-])CCN(CC(=O)[O-])C1.[Gd+3].[Na+] [Compound 12e, [[6-[Bis[(carboxy)methyl]amino]-6-[5-(didodecylamino)-5-oxopent-1-yl]-tetrahydro-1H-1,4-diazepine-1,4(5H)-diacetate(4-)]gadolinate(1-)]sodium] | 33.4 mM⁻¹ s⁻¹ | 40.4 mM⁻¹ s⁻¹ | 36.2 mM⁻¹ s⁻¹ | 33.4 mM⁻¹ s⁻¹ | r1p (stability at 37° C.) ([1]; Human plasma, 2 h): 35.2 mM⁻¹ s⁻¹; r1p (stability at 37° C.) ([1]; Human plasma, 4 h): 32.3 mM⁻¹ s⁻¹; r1p (stability at 37° C.) ([1]; Human plasma, T0): 36.2 mM⁻¹ s⁻¹; r1p (stability at 37° C.) ([1]; Water, 2 h): 31.3 mM⁻¹ s⁻¹; r1p (stability at 37° C.) ([1]; Water, 4 h): 30.4 mM⁻¹ s⁻¹
CCCCCCCCCCCC(=O)OC[C@H](COP(=O)(O)OCCNC(=O)CCCCC1(N(CC(=O)[O-])CC(=O)[O-])CN(CC(=O)[O-])CCN(CC(=O)[O-])C1)OC(=O)CCCCCCCCCCC.[Gd+3].[Na+] [Compound 9b] | 16.7 mM⁻¹ s⁻¹ | 32.0 mM⁻¹ s⁻¹ | 32.5 mM⁻¹ s⁻¹ | 16.7 mM⁻¹ s⁻¹ | r1p (stability at 37° C.) ([1]; Human plasma, 1 h): 30.9 mM⁻¹ s⁻¹; r1p (stability at 37° C.) ([1]; Human plasma, 4 h): 28.3 mM⁻¹ s⁻¹; r1p (stability at 37° C.) ([1]; Human plasma, T0): 32.5 mM⁻¹ s⁻¹; r1p (stability at 37° C.) ([1]; Water, 1 h): 15.9 mM⁻¹ s⁻¹; r1p (stability at 37° C.) ([1]; Water, 4 h): 15.5 mM⁻¹ s⁻¹
CCCCCCN(CCCCCC)C(=O)CCCCC1(N(CC(=O)[O-])CC(=O)[O-])CN(CC(=O)[O-])CCN(CC(=O)[O-])C1.[Gd+3].[Na+] [Compound 12b, [[6-[Bis[(carboxy)methyl]amino]-6-[5-(dihexylamino)-5-oxopent-1-yl]-tetrahydro-1H-1,4-diazepine-1,4(5H)-diacetate(4-)]gadolinate(1-)]sodium] | – | 31.5 mM⁻¹ s⁻¹ | 33.7 mM⁻¹ s⁻¹ | 13.0 mM⁻¹ s⁻¹ | –
CCCCCCCCCCN(CCCCCCCCCC)C(=O)C1CCC(C2(N(CC(=O)[O-])CC(=O)[O-])CN(CC(=O)[O-])CCN(CC(=O)[O-])C2)CC1.[Gd+3].[Na+] [Compound 25a, [[6-[Bis(carboxymethyl)amino]-6-[(1R,4R)-4-[(didecylamino)-carbonyl]-cyclohexane-1-yl]tetrahydro-1H-1,4-diazepine-1,4(5H)diacetate(4-)]gadolinate(1-)]sodium] | 23.9 mM⁻¹ s⁻¹ | 45.8 mM⁻¹ s⁻¹ | 41.1 mM⁻¹ s⁻¹ | 23.9 mM⁻¹ s⁻¹ | r1p (stability at 37° C.) ([1]; HSA 4%, 5 h): 40.4 mM⁻¹ s⁻¹; r1p (stability at 37° C.) ([1]; HSA 4%, T0): 45.8 mM⁻¹ s⁻¹; r1p (stability at 37° C.) ([1]; Water, 5 h): 23.4 mM⁻¹ s⁻¹
O=C([O-])CN1CCN(CC(=O)[O-])CCN([C@H](CO)[C@H](O)CO)CCN(CC(=O)[O-])CC1.[Gd+3] [Gd-BT-DO3A, reference compound] | – | 4.31 mM⁻¹ s⁻¹ | 5.76 mM⁻¹ s⁻¹ | 3.75 mM⁻¹ s⁻¹ | –
C[NH2+]C[C@H](O)[C@@H](O)[C@H](O)[C@H](O)CO.O=C([O-])CN1CCN(CC(=O)[O-])CCN(CC(=O)[O-])CCN(CC(=O)[O-])CC1.[Gd+3] [Gd-DOTA, [[1,4,7,10-tetraazacyclododecane-1,4,7,10-tetraacetato(4-)]gadolinate(1-)] meglumine, reference compound] | – | 4.11 mM⁻¹ s⁻¹ | 4.51 mM⁻¹ s⁻¹ | 3.61 mM⁻¹ s⁻¹ | –
CCCCCCCCN(CCCCCCCC)C(=O)C1CCC(C2(N(CC(=O)[O-])CC(=O)[O-])CN(CC(=O)[O-])CCN(CC(=O)[O-])C2)CC1.[Gd+3].[Na+] [Compound 25b, [6-[Bis(carboxymethyl)amino]-6-[(1R,4R)-4-[(dioctylamino)-carbonyl]-cyclohexane-1-yl]tetrahydro-1H-1,4-diazepine-1,4(5H)diacetate(4-)]gadolinate(1-)]sodium] | – | 41.0 mM⁻¹ s⁻¹ | 39.1 mM⁻¹ s⁻¹ | 14.6 mM⁻¹ s⁻¹ | –
CCCCCCCCN(CCCCCCCC)C(=O)CCCCC1(N(CC(=O)[O-])CC(=O)[O-])CN(CC(=O)[O-])CCN(CC(=O)[O-])C1.[Gd+3].[Na+] [Compound 12c, [[6-[Bis[(carboxy)methyl]amino]-6-[5-(dioctylamino)-5-oxopent-1-yl]-tetrahydro-1H-1,4-diazepine-1,4(5H)-diacetate(4-)]gadolinate(1-)]sodium] | – | 54.2 mM⁻¹ s⁻¹ | 50.2 mM⁻¹ s⁻¹ | 13.3 mM⁻¹ s⁻¹ | –
CC(O)CN1CCN(CC(=O)[O-])CCN(CC(=O)[O-])CCN(CC(=O)[O-])CC1.[Gd+3] (stereo not drawn) [Gd-HP-DO3A, [10-(2-hydroxyprop-1-yl)-1,4,7,10-tetraazacyclododecane-1,4,7-triacetato(3-)]gadolinium, reference compound] | – | 3.85 mM⁻¹ s⁻¹ | 4.80 mM⁻¹ s⁻¹ | 3.32 mM⁻¹ s⁻¹ | –
C[NH2+]C[C@H](O)[C@@H](O)[C@H](O)[C@H](O)CO.C[NH2+]C[C@H](O)[C@@H](O)[C@H](O)[C@H](O)CO.O=C([O-])CN(CCN(CC(=O)[O-])CC(=O)[O-])CCN(CC(=O)[O-])C(COCc1ccccc1)C(=O)[O-].[Gd+3] (stereo not drawn) [Gd-BOPTA, [[4-(carboxy)-5,8,11-tris(carboxymethyl)-1-phenyl-2-oxa-5,8,11-triazatridecan-13-oato(5-)]gadolinate(2-)]dimeglumine, reference compound] | – | 8.9 mM⁻¹ s⁻¹ | 8.7 mM⁻¹ s⁻¹ | 4.6 mM⁻¹ s⁻¹ | –
CCCCCCCCCCN(CCCCCCCCCC)C(=O)CCCCC1(N(CC(=O)[O-])CC(=O)[O-])CN(CC(=O)[O-])CCN(CC(=O)[O-])C1.[Gd+3].[Na+] [Compound 12d, [[6-[Bis[(carboxy)methyl]amino]-6-[5-(didecylamino)-5-oxopent-1-yl]-tetrahydro-1H-1,4-diazepine-1,4(5H)-diacetate(4-)]gadolinate(1-)]sodium] | 23.5 mM⁻¹ s⁻¹ | 46.7 mM⁻¹ s⁻¹ | 45.2 mM⁻¹ s⁻¹ | 23.5 mM⁻¹ s⁻¹ | r1p (stability at 37° C.) ([1]; HSA 4%, 5 h): 40.9 mM⁻¹ s⁻¹; r1p (stability at 37° C.) ([1]; HSA 4%, T0): 46.7 mM⁻¹ s⁻¹; r1p (stability at 37° C.) ([1]; Human plasma, 2 h): 39.2 mM⁻¹ s⁻¹; r1p (stability at 37° C.) ([1]; Human plasma, 5 h): 34.7 mM⁻¹ s⁻¹; r1p (stability at 37° C.) ([1]; Human plasma, T0): 45.2 mM⁻¹ s⁻¹; r1p (stability at 37° C.) ([1]; Water, 2 h): 20.4 mM⁻¹ s⁻¹; r1p (stability at 37° C.) ([1]; Water, 5 h): 15.8 mM⁻¹ s⁻¹
CCCCCCCCCC(=O)OC[C@H](COP(=O)([O-])OCCNC(=O)C1CCC(C2(N(CC(=O)[O-])CC(=O)[O-])CN(CC(=O)[O-])CCN(CC(=O)[O-])C2)CC1)OC(=O)CCCCCCCCC.[Gd+3].[Na+].[Na+] (stereo partly drawn) [Compound 25c, [6-[-[Bis(carboxymethyl)amino]-6-[(1R,4R)-4-[[[(7R)-4-hydroxy-4-oxido-10-oxo-7-[(1-oxodecyl)oxy]-3,5,9-trioxa-4-phosphanonadec-1-yl]amino]-carbonyl]-cyclohexane-1-yl]tetrahydro-1H-1,4-diazepine-1,4(5H)-diacetate(5)]gadolinate(2-)]disodium] | – | 40.2 mM⁻¹ s⁻¹ | 43.0 mM⁻¹ s⁻¹ | 14.7 mM⁻¹ s⁻¹ | –
